What was measured:
[1] = acute toxicity, single oral administration to mice; details: mouse, in vivo
Source text: Moreover, the Table contains data concerning the acute toxicity (LD50 in mg/kg in the case of single oral administration to mice).

short-time memory = assay: passive avoidance response in the Skinner box; reversal of scopolamine-induced blocking of short-time memory; type: in vivo, rats
Source text: The test apparatus is a "Skinner box" with an electrifiable grid floor (30×40 cm) and a grey plastic platform (15×15×0.8 cm) in the front right corner. Untrained male rats (100-120 g) are placed individually on the platform. As soon as they climb down on to the grid floor they receive an electric foot-shock (0.8 mA). The normal reaction of untrained rats is thereupon to jump back on to the platform. Since, however, the rats still attempt to climb down again, the foot-shock procedure must be repeated three to five times for each animal. After these three to five repetitions per animal, the rats have learned a so-called "passive avoidance response", that is, they no longer attempt to descend to the grid floor, since they know that they are punished when they do so.
Immediately thereafter three groups each comprising 30 animals are set up. The first group receives an injection (i.p.) of 0.3 mg/kg of scopolamine as well as distilled water (2 ml/kg, p.o.). The second group receives an injection (i.p.) of 0.3 mg/kg of scopolamine and an oral dosage of the test substance. The third group receives only distilled water (p.o).
Two (2) hours later each rat is placed once on the platform in the "Skinner box". […] The statistical significance of the difference between the results obtained in the first and in the second groups is determined by means of the Chi-Square Test. […]

In the case of C[C@@H]1CCC[C@H](C)N1CCNC(=O)CN1CCC(O)C1=O (mixture of isomers) [Compound A, (R/S)-cis-N-[2-(2,6-dimethyl-1-piperidinyl)ethyl]-2-(3-hydroxy-2-oxo-1-pyrrolidinyl)acetamide], the LD50 [1] was > 5000 mg/kg.

For NC(=O)CN1CCC(O)C1=O (racemic) [Compound D, (R/S)-2-(3-hydroxy-2-oxo-1-pyrrolidinyl)acetamide], the LD50 [1] was > 5000 mg/kg.

For CC(C)N(CCNC(=O)CN1CCC(O)C1=O)C(C)C (racemic) [Compound E, (R/S)-N-[2-(diisopropylamino)ethyl]-2-(3-hydroxy-2-oxo-1-pyrrolidinyl)-acetamide], the Significant active dosage (short-time memory; oral dosage significantly active against scopolamine (0.3 mg/kg i.p.), assessed 2 hours later, Chi-Square Test, each listed dosage was active) was 3 mg/kg p.o and the LD50 [1] was > 5000 mg/kg.

For NC(=O)CN1CC[C@H](O)C1=O [Compound B, (S)-(-)-2-(3-hydroxy-2-oxo-1-pyrrolidinyl)acetamide], the LD50 [1] was > 5000 mg/kg.

For NC(=O)CN1CC[C@@H](O)C1=O [Compound C, (R)-(+)-2-(3-hydroxy-2-oxo-1-pyrrolidinyl)acetamide], the LD50 [1] was > 5000 mg/kg.

For CN1[C@@H]2C[C@@H](OC(=O)[C@H](CO)c3ccccc3)C[C@H]1[C@@H]1O[C@@H]12 [scopolamine, reference compound], the “animals with retrograde effect on the short-time memory” value (short-time memory; scopolamine 0.3 mg/kg i.p. and distilled water p.o., during 3-4 hours) was 85-92%.
